From patent US20110306597A1, “Nicotinamide Derivatives” (priority 2008, published 2011)

Molecular target: human recombinant H-PGDS (Homo sapiens, UniProt O60760)
Experiment: Fluorescence Intensity h-PGDS TBA Enzyme Assay
Type: biochemical
Conditions: 1:175,000 human recombinant H-PGDS, highest inhibitor concentration typically 1 μM
Method in brief: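 Recombinant human H-PGDS preincubated 10 min at room temperature with inhibitor in 100 mM Tris pH 8.0, 100 μM MgCl2, 2.5 mM glutathione, 0.5% DMSO; 5.0 μM PGH2 added, stopped after 42 s with FeCl2/citric acid. Remaining PGH2 measured as MDA–TBA fluorescence (ex 530/em 565 nm); IC50 by 4-parameter fit, 11 concentrations.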

human recombinant H-PGDS, sequence (O60760 whole entry): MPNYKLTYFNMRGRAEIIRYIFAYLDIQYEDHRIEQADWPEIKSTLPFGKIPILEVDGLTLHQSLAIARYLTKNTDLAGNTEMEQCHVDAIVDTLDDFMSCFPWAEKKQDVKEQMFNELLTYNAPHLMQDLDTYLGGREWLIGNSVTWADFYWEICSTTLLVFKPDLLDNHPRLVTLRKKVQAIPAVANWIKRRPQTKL

Q: With CCOC(=O)C(CNC(=O)c1ccc(-c2cccc(F)c2)nc1)c1c(F)cccc1F (centres unmarked) [Example 163, Ethyl 2-(2,6-difluorophenyl)-3-({[6-(3-fluorophenyl)pyridin-3-yl]carbonyl}amino)propanoate] as the molecule, how does the IC50 read?
A: The IC50 was 146 nM.

Q: How did the IC50 turn out when O=C(NCCN1CCCCC1=O)c1ccc(-c2cccc(F)c2)nc1 [Example 164, 6-(3-Fluorophenyl)-N-[2-(2-oxopiperidin-1-yl)ethyl]nicotinamide] was run?
A: Its IC50 is 9.13 nM.

Q: COC(=O)CNC(=O)[C@H](C)NC(=O)c1ccc(-c2cccc(F)c2)nc1 [Example 165, Methyl N-{[6-(3-fluorophenyl)pyridin-3-yl]carbonyl}-L-alanylglycinate] was tested. Which IC50 did it give?
A: The IC50 was 20.8 nM.

Q: For CCOC(=O)CC[C@@H](NC(=O)c1ccc(-c2cccc(F)c2)nc1)C(=O)OCC [Example 166, Diethyl N-{[6-(3-fluorophenyl)pyridin-3-yl]carbonyl}-D-glutamate], which IC50 is on record?
A: Its IC50 is 2.57 nM.

Q: Which IC50 does the source give for CS(=O)(=O)Cc1noc(CNC(=O)c2ccc(-c3cccc(F)c3)nc2)n1 [Example 167, 6-(3-Fluorophenyl)-N-({3-[(methylsulfonyl)methyl]-1,2,4-oxadiazol-5-yl}methyl)nicotinamide] here?
A: The IC50 was 285 nM.

Q: For CN(C)CC(C)(C)CNC(=O)c1ccc(-c2cccc(F)c2)nc1 [Example 168, N-[3-(Dimethylamino)-2,2-dimethylpropyl]-6-(3-fluorophenyl)nicotinamide], which IC50 is on record?
A: Its IC50 is 175 nM.

Q: O=C(NCCN1CCOCC1)c1ccc(-c2cccc(F)c2)nc1 [Example 169, 6-(3-Fluorophenyl)-N-(2-morpholin-4-ylethyl)nicotinamide] was tested. Which IC50 did it give?
A: The IC50 was 43.5 nM.

Q: For CC(C)CNC(=O)c1ccc(-c2cccc(F)c2)nc1 [Example 170, 6-(3-Fluorophenyl)-N-isobutylnicotinamide], which IC50 is on record?
A: The IC50 was 26.1 nM.

Q: COC(=O)CC(NC(=O)c1ccc(-c2cccc(F)c2)nc1)c1cccnc1 (centres unmarked) [Example 171, Methyl 3-({[6-(3-fluorophenyl)pyridin-3-yl]carbonyl}amino)-3-pyridin-3-ylpropanoate] was tested. Which IC50 did it give?
A: Its IC50 is 52.7 nM.

Q: With O=C(NCCC1CCCCO1)c1ccc(-c2cccc(F)c2)nc1 (centres unmarked) [Example 172, 6-(3-Ffluorophenyl)-N-[2-(tetrahydro-2H-pyran-2-yl)ethyl]nicotinamide] as the molecule, how does the IC50 read?
A: The IC50 was 5.74 nM.

Q: With COC(=O)CNC(=O)c1ccc(-c2cccc(F)c2)nc1 [Example 173, Methyl N-{[6-(3-fluorophenyl)pyridin-3-yl]carbonyl}glycinate] as the molecule, how does the IC50 read?
A: Its IC50 is 82 nM.

Q: For COC(=O)[C@H](C)NC(=O)c1ccc(-c2cccc(F)c2)nc1 [Example 174, Methyl N-{[6-(3-fluorophenyl)pyridin-3-yl]carbonyl}alaninate], which IC50 is on record?
A: Its IC50 is 601 nM.

Q: How did the IC50 turn out when CN1CCC(CCNC(=O)c2ccc(-c3cccc(F)c3)nc2)CC1 [Example 175, 6-(3-Fluorophenyl)-N-[2-(1-methylpiperidin-4-yl)ethyl]nicotinamide] was run?
A: Its IC50 is 47.1 nM.

Q: With O=C(NCCN1CCN(Cc2ccccc2)CC1)c1ccc(-c2cccc(F)c2)nc1 [Example 176, N-[2-(4-Benzylpiperazin-1-yl)ethyl]-6-(3-fluorophenyl)nicotinamide] as the molecule, how does the IC50 read?
A: Its IC50 is 33.4 nM.

Q: With O=C(Nc1ccncc1)c1ccc(-c2cccc(F)c2)nc1 [Example 177, 6-(3-Fluorophenyl)-N-pyridin-4-ylnicotinamide] as the molecule, how does the IC50 read?
A: The IC50 was 8.19 nM.

Q: CC(=O)N1CCC(CNC(=O)c2ccc(-c3cccc(F)c3)nc2)CC1 [Example 178, N-[(1-Acetylpiperidin-4-yl)methyl]-6-(3-fluorophenyl)nicotinamide] was tested. Which IC50 did it give?
A: The IC50 was 6.88 nM.

Q: Which IC50 does the source give for CC(C)NC(=O)c1ccc(-c2cccc(F)c2)nc1 [Example 179, 6-(3-Fluorophenyl)-N-isopropylnicotinamide] here?
A: The IC50 was 20.5 nM.

Q: How did the IC50 turn out when O=C(NCc1ccc(-n2cncn2)cc1)c1ccc(-c2cccc(F)c2)nc1 [Example 180, 6-(3-Fluorophenyl)-N-[4-(1H-1,2,4-triazol-1-yl)benzyl]nicotinamide] was run?
A: The IC50 was 23.1 nM.

Q: How did the IC50 turn out when Cc1noc(CCNC(=O)c2ccc(-c3cccc(F)c3)nc2)n1 [Example 181, 6-(3-Fluorophenyl)-N-[2-(3-methyl-1,2,4-oxadiazol-5-yl)ethyl]nicotinamide] was run?
A: The IC50 was 44.6 nM.

Q: With O=C(NCc1cn2ncsc2n1)c1ccc(-c2cccc(F)c2)nc1 [Example 182, 6-(3-Fluorophenyl)-N-(imidazo[2,1-b][1,3,4]thiadiazol-6-ylmethyl)nicotinamide] as the molecule, how does the IC50 read?
A: The IC50 was 79.2 nM.

Q: Which IC50 does the source give for O=C(NCCN1CCCC1=O)c1ccc(-c2cccc(F)c2)nc1 [Example 183, 6-(3-Fluorophenyl)-N-[2-(2-oxopyrrolidin-1-yl)ethyl]nicotinamide] here?
A: Its IC50 is 17.4 nM.

Q: For O=C(NCc1cc(F)cc2c1OCOC2)c1ccc(-c2cccc(F)c2)nc1 [Example 184, N-[(6-Fluoro-4H-1,3-benzodioxin-8-yl)methyl]-6-(3-fluorophenyl)nicotinamide], which IC50 is on record?
A: Its IC50 is 49.5 nM.

Q: O=C(NCCc1ccncc1)c1ccc(-c2cccc(F)c2)nc1 [Example 185, 6-(3-Fluorophenyl)-N-(2-pyridin-4-ylethyl)nicotinamide] was tested. Which IC50 did it give?
A: Its IC50 is 8.99 nM.

Q: With O=C(NCCN1CCOC1=O)c1ccc(-c2cccc(F)c2)nc1 [Example 186, 6-(3-Fluorophenyl)-N-[2-(2-oxo-1,3-oxazolidin-3-yl)ethyl]nicotinamide] as the molecule, how does the IC50 read?
A: The IC50 was 34.6 nM.

Q: For COC(=O)CCNC(=O)c1ccc(-c2cccc(F)c2)nc1 [Example 187, Methyl N-{[6-(3-fluorophenyl)pyridin-3-yl]carbonyl}-beta-alaninate], which IC50 is on record?
A: The IC50 was 14.5 nM.

Q: For CCC1CCN(CCNC(=O)c2ccc(-c3cccc(F)c3)nc2)CC1 [Example 188, N-[2-(4-Ethylpiperidin-1-yl)ethyl]-6-(3-fluorophenyl)nicotinamide], which IC50 is on record?
A: Its IC50 is 16.3 nM.

Q: Which IC50 does the source give for CS(=O)(=O)c1cccc(CNC(=O)c2ccc(-c3cccc(F)c3)nc2)c1 [Example 189, 6-(3-Fluorophenyl)-N-[3-(methylsulfonyl)benzyl] nicotinamide] here?
A: The IC50 was 6.74 nM.

Q: Which IC50 does the source give for COc1ccc(C(CNC(=O)c2ccc(-c3cccc(F)c3)nc2)N2CCOCC2)cc1 (centres unmarked) [Example 190, 6-(3-Fluorophenyl)-N-[2-(4-methoxyphenyl)-2-morpholin-4-ylethyl]nicotinamide] here?
A: The IC50 was 1330 nM.

Q: O=C(NC1CCOCC1)c1ccc(-c2cccc(F)c2)nc1 [Example 191, 6-(3-Ffluorophenyl)-N-(tetrahydro-2H-pyran-4-yl)nicotinamide] was tested. Which IC50 did it give?
A: Its IC50 is 2.33 nM.

Q: How did the IC50 turn out when CCOC(=O)CCCNC(=O)c1ccc(-c2cccc(F)c2)nc1 [Example 192, Ethyl 4-({[6-(3-fluorophenyl)pyridin-3-yl]carbonyl}amino)butanoate] was run?
A: Its IC50 is 9.04 nM.

Q: With Cc1ccc(CN2CCC(NC(=O)c3ccc(-c4cccc(F)c4)nc3)C2=O)cc1 (centres unmarked) [Example 193, 6-(3-Fluorophenyl)-N-[1-(4-methylbenzyl)-2-oxopyrrolidin-3-yl]nicotinamide] as the molecule, how does the IC50 read?
A: Its IC50 is 2.23 nM.

Q: COC(C)(C)CNC(=O)c1ccc(-c2cccc(F)c2)nc1 [Example 194, 6-(3-Fluorophenyl)-N-(2-methoxy-2-methylpropyl)nicotinamide] was tested. Which IC50 did it give?
A: Its IC50 is 376 nM.

Q: O=C(NCCN1CCCCC1)c1ccc(-c2cccc(F)c2)nc1 [Example 195, 6-(3-Fluorophenyl)-N-(2-piperidin-1-ylethyl)nicotinamide] was tested. Which IC50 did it give?
A: The IC50 was 12.1 nM.

Q: For COc1ccc(C(N)CC(=O)NC(=O)c2ccc(-c3cccc(F)c3)nc2)cc1OC (centres unmarked) [Example 196, N-[3-Amino-3-(3,4-dimethoxyphenyl)propanoyl]-6-(3-fluorophenyl)nicotinamide], which IC50 is on record?
A: The IC50 was 12.4 nM.

Q: Which IC50 does the source give for O=C(NCCCNc1ccccn1)c1ccc(-c2cccc(F)c2)nc1 [Example 197, 6-(3-Fluorophenyl)-N-[3-(pyridin-2-ylamino)propyl]nicotinamide] here?
A: Its IC50 is 34 nM.
